# Data taken from patent US20180110223A1, “PHENOXY- OR PYRIDIN-2-YLOXY-AMINOTRIAZINE COMPOUNDS AND THEIR USE AS HERBICIDES” (BASF SE, priority 2015, published 2018).
# Tests used:
# Type in all cases: in vivo
# Echinocloa crus-galli [1] = assay: greenhouse post-emergence treatment, ECHCG; conditions: scale from 0 to 100
# Excerpt: (§1) The culture containers used were plastic flowerpots containing loamy sand with approximately 3.0% of humus as the substrate. The seeds of the test plants were sown separately for each species.
# (§2) For the post-emergence treatment, the test plants were first grown to a height of 3 to 15 cm, depending on the plant habit, and only then treated with the active ingredients which had been suspended or emulsified in water. For this purpose, the test plants were either sown directly and grown in the same containers, or they were first grown separately as seedlings and transplanted into the test containers a few days prior to treatment.
# (§3) Depending on the species, the plants were kept at 10-25° C. or 20-35° C., respectively.
# (§4) The test period extended over 2 to 4 weeks. During this time, the plants were tended, and their response to the individual treatments was evaluated.
# (§5) Evaluation was carried out using a scale from 0 to 100. 100 means no emergence of the plants, or complete destruction of at least the aerial moieties, and 0 means no damage, or normal course of growth.
# (§6) The plants used in the greenhouse experiments were of the following species: […]
# Setaria faberi [2] = assay: greenhouse post-emergence treatment, SETFA; conditions: scale from 0 to 100
# Excerpt: as §1, §2, §3, §4, §5, §6
# Abutilon theophrasti [3] = assay: greenhouse post-emergence treatment, ABUTH; conditions: scale from 0 to 100
# Excerpt: as §1, §2, §3, §4, §5, §6
# Amaranthus retroflexus [4] = assay: greenhouse post-emergence treatment, AMARE; conditions: scale from 0 to 100
# Excerpt: as §1, §2, §3, §4, §5, §6
# Viola arvensis = assay: greenhouse post-emergence treatment, VIOAR; conditions: 1000 g/ha, scale from 0 to 100
# Excerpt: as §1, §2, §3, §4, §5, §6
# Alopecurus agrestis = assay: greenhouse post-emergence treatment, ALOMY; conditions: 500 g/ha, scale from 0 to 100
# Excerpt: as §1, §2, §3, §4, §5, §6
# Amaranthus retroflexus [5] = assay: greenhouse pre-emergence treatment, AMARE; conditions: scale from 0 to 100
# Excerpt: as §1
# (§7) For the pre-emergence treatment, the active ingredients, which had been suspended or emulsified in water, were applied directly after sowing by means of finely distributing nozzles. The containers were irrigated gently to promote germination and growth and subsequently covered with transparent plastic hoods until the plants had rooted. This cover caused uniform germination of the test plants, unless this had been impaired by the active ingredients.
# as §3, §4, §5, §6
# Setaria faberi [6] = assay: greenhouse pre-emergence treatment, SETFA; conditions: scale from 0 to 100
# Excerpt: as §1, §7, §3, §4, §5, §6
# Echinocloa crus-galli [7] = assay: greenhouse pre-emergence treatment, ECHCG; conditions: scale from 0 to 100
# Excerpt: as §1, §7, §3, §4, §5, §6
# Abutilon theophrasti [8] = assay: greenhouse pre-emergence treatment, ABUTH; conditions: 1000 g/ha, scale from 0 to 100
# Excerpt: as §1, §7, §3, §4, §5, §6
# Polygonum convolvulus = assay: greenhouse post-emergence treatment, POLCO; conditions: 125 g/ha, scale from 0 to 100
# Excerpt: as §1, §2, §3, §4, §5, §6
smiles,measurement,setting,value
"CC(F)c1nc(N)nc(Oc2c(F)c(F)cc(F)c2F)n1 (stereo not drawn) [Example 1, 4-(1-fluoroethyl)-6-(2,3,5,6-tetrafluorophenoxy)-1,3,5-triazin-2-amine]",herbicidal activity against ECHCG,Echinocloa crus-galli [1]; 3000 g/ha,very good (a very good herbicidal activity is given at values of at least 85)
same,herbicidal activity against SETFA,Setaria faberi [2]; 3000 g/ha,very good (a very good herbicidal activity is given at values of at least 85)
same,herbicidal activity against ABUTH,Abutilon theophrasti [3]; 3000 g/ha,good (a good herbicidal activity is given at values of at least 70)
CC(C)(F)c1nc(N)nc(Oc2c(F)c(F)c(F)c(F)c2F)n1 [Example 2],herbicidal activity against ECHCG,Echinocloa crus-galli [1]; 3000 g/ha,very good (a very good herbicidal activity is given at values of at least 85)
same,herbicidal activity against SETFA,Setaria faberi [2]; 3000 g/ha,very good (a very good herbicidal activity is given at values of at least 85)
CC(C)(F)c1nc(N)nc(Oc2c(F)ccc(F)c2F)n1 [Example 5],herbicidal activity against AMARE,Amaranthus retroflexus [4]; 1000 g/ha,very good (a very good herbicidal activity is given at values of at least 85)
CC(F)c1nc(N)nc(Oc2cccc(F)c2F)n1 (stereo not drawn) [Example 7],herbicidal activity against ECHCG,Echinocloa crus-galli [1]; 1000 g/ha,very good (a very good herbicidal activity is given at values of at least 85)
same,herbicidal activity against SETFA,Setaria faberi [2]; 1000 g/ha,very good (a very good herbicidal activity is given at values of at least 85)
CC(F)c1nc(N)nc(Oc2c(F)ccc(F)c2F)n1 (stereo not drawn) [Example 8],herbicidal activity against VIOR,Viola arvensis,very good (a very good herbicidal activity is given at values of at least 85)
same,herbicidal activity against AMARE,Amaranthus retroflexus [4]; 1000 g/ha,very good (a very good herbicidal activity is given at values of at least 85)
same,herbicidal activity against SETFA,Setaria faberi [2]; 1000 g/ha,very good (a very good herbicidal activity is given at values of at least 85)
CC(F)c1nc(N)nc(Oc2c(F)cc(F)c(F)c2F)n1 (stereo not drawn) [Example 9],herbicidal activity against VIOR,Viola arvensis,very good (a very good herbicidal activity is given at values of at least 85)
same,herbicidal activity against AMARE,Amaranthus retroflexus [4]; 1000 g/ha,very good (a very good herbicidal activity is given at values of at least 85)
same,herbicidal activity against SETFA,Setaria faberi [2]; 1000 g/ha,very good (a very good herbicidal activity is given at values of at least 85)
Nc1nc(Oc2c(F)cc(F)c(F)c2F)nc(C(F)(F)F)n1 [Example 11],herbicidal activity against SETFA,Setaria faberi [2]; 1000 g/ha,very good (a very good herbicidal activity is given at values of at least 85)
CCC(C)(F)c1nc(N)nc(Oc2c(F)cc(F)c(F)c2F)n1 (stereo not drawn) [Example 19],herbicidal activity against AMARE,Amaranthus retroflexus [4]; 500 g/ha,very good (a very good herbicidal activity is given at values of at least 85)
CC(C)(C#N)c1nc(N)nc(Oc2c(F)c(F)c(F)c(F)c2F)n1 [Example 22],herbicidal activity against ALOMY,Alopecurus agrestis,good (a good herbicidal activity is given at values of at least 70)
CCC(F)c1nc(N)nc(Oc2c(F)cc(F)c(F)c2F)n1 (stereo not drawn) [Example 23],herbicidal activity against AMARE,Amaranthus retroflexus [5]; 1000 g/ha,very good (a very good herbicidal activity is given at values of at least 85)
same,herbicidal activity against SETFA,Setaria faberi [6]; 1000 g/ha,very good (a very good herbicidal activity is given at values of at least 85)
same,herbicidal activity against ECHCG,Echinocloa crus-galli [7]; 1000 g/ha,very good (a very good herbicidal activity is given at values of at least 85)
CCC(F)c1nc(N)nc(Oc2c(F)c(F)c(F)c(F)c2F)n1 (stereo not drawn) [Example 24],herbicidal activity against ABUTH,Abutilon theophrasti [8],very good (a very good herbicidal activity is given at values of at least 85)
same,herbicidal activity against SETFA,Setaria faberi [6]; 1000 g/ha,very good (a very good herbicidal activity is given at values of at least 85)
same,herbicidal activity against ECHCG,Echinocloa crus-galli [7]; 1000 g/ha,very good (a very good herbicidal activity is given at values of at least 85)
Nc1nc(Oc2c(F)cc(F)c(F)c2F)nc(-c2cccs2)n1 [Example 25],herbicidal activity against ECHCG,Echinocloa crus-galli [1]; 500 g/ha,good (a good herbicidal activity is given at values of at least 70)
Nc1nc(Oc2c(F)cc(F)c(F)c2F)nc(-c2ccc(Cl)s2)n1 [Example 27],herbicidal activity against AMARE,Amaranthus retroflexus [4]; 500 g/ha,herbicidal activity
Cc1ccc(-c2nc(N)nc(Oc3c(F)cc(F)c(F)c3F)n2)o1 [Example 32],herbicidal activity against ABUTH,Abutilon theophrasti [3]; 1000 g/ha,very herbicidal activity
Nc1nc(Oc2c(F)cc(F)c(F)c2F)nc(C2CCCO2)n1 (stereo not drawn) [Example 33],herbicidal activity against POLCO,Polygonum convolvulus,very good (a very good herbicidal activity is given at values of at least 85)
Nc1nc(Oc2c(F)cc(F)c(F)c2F)nc([C@H]2CCCO2)n1 [Example 34],herbicidal activity against AMARE,Amaranthus retroflexus [5]; 500 g/ha,good (a good herbicidal activity is given at values of at least 70)
same,herbicidal activity against SETFA,Setaria faberi [6]; 500 g/ha,good (a good herbicidal activity is given at values of at least 70)
Nc1nc(Oc2c(F)cc(F)c(F)c2F)nc([C@@H]2CCCO2)n1 [Example 35],herbicidal activity against AMARE,Amaranthus retroflexus [4]; 500 g/ha,good (a good herbicidal activity is given at values of at least 70)
Cc1ncoc1-c1nc(N)nc(Oc2c(F)cc(F)c(F)c2F)n1 [Example 38],herbicidal activity against ECHCG,Echinocloa crus-galli [1]; 1000 g/ha,good (a good herbicidal activity is given at values of at least 70)
CC(F)c1nc(N)nc(Oc2c(F)c(F)c(F)c(I)c2F)n1 (stereo not drawn) [Example 39],herbicidal activity against ECHCG,Echinocloa crus-galli [1]; 500 g/ha,good (a good herbicidal activity is given at values of at least 70)
same,herbicidal activity against SETFA,Setaria faberi [2]; 500 g/ha,very good (a very good herbicidal activity is given at values of at least 85)
CC(C)C(F)c1nc(N)nc(Oc2c(F)cc(F)c(F)c2F)n1 (stereo not drawn) [Example 42],herbicidal activity against AMARE,Amaranthus retroflexus [5]; 500 g/ha,good (a good herbicidal activity is given at values of at least 70)
same,herbicidal activity against SETFA,Setaria faberi [6]; 500 g/ha,very good (a very good herbicidal activity is given at values of at least 85)
same,herbicidal activity against ECHCG,Echinocloa crus-galli [7]; 500 g/ha,good (a good herbicidal activity is given at values of at least 70)
